According to DBAASP:
≈ marks a conversion by molar mass, not a printed value. One block for each molecule: values may come before it.

Columns and labels:
Assay in all cases: ≥ marks a high value that may be exact or a test limit, other limits are often not marked, values filed in µg/mL are converted to µM
[1] = test system: Escherichia coli ESBL 64771
[2] = test system: Pseudomonas aeruginosa H1030
[3] = test system: Enterococcus faecalis f43559
[4] = test system: Enterococcus faecium t62764
[5] = test system: Staphylococcus aureus C623
[6] = test system: Escherichia coli ESBL 63103
[7] = test system: Pseudomonas aeruginosa 213
[8] = test system: Stenotrophomonas maltophilia ATCC 13637
[9] = test system: Pseudomonas aeruginosa H1027
[10] = test system: Pseudomonas aeruginosa LES400
[11] = test system: Pseudomonas aeruginosa PAO1 H103
[12] = test system: Enterococcus faecalis W61950
Pseudomonas aeruginosa 9 = test system: Pseudomonas aeruginosa 9
[13] = test system: Klebsiella pneumoniae ESBL 61962
[14] = test system: Enterococcus faecium mic80
[15] = test system: Pseudomonas aeruginosa 198
[16] = test system: Enterobacter cloacae 218R
[17] = test system: Staphylococcus aureus ATCC 25923
[18] = test system: Enterococcus faecalis ATCC 29212
[19] = test system: Klebsiella pneumoniae ESBL 63575
[20] = test system: Batrachochytrium dendrobatidis JEL-197
[21] = test system: Escherichia coli ATCC 11219
[22] = test system: Salmonella enterica subsp. enterica serovar Typhimurium ATCC 14028
[23] = test system: Pseudomonas aeruginosa ATCC 13388
[24] = test system: Staphylococcus aureus ATCC 6538
[25] = test system: Klebsiella pneumoniae ATCC 10031
[26] = test system: Staphylococcus aureus ATCC 33591
[27] = test system: Staphylococcus aureus SG511
[28] = test system: Escherichia coli ESBL 521/17
Escherichia coli ML-35p = test system: Escherichia coli ML-35p
[29] = test system: Klebsiella pneumoniae ESBL 344/17
[30] = test system: Staphylococcus aureus 1399/17
[31] = test system: Pseudomonas aeruginosa 522/17
[32] = test system: Acinetobacter baumannii 7226/16

MIC [1]: ≥ 149 µM
MIC [2]: ≥ 149 µM
MIC [3]: ≥ 149 µM
MIC [4]: ≥ 149 µM
MIC [5]: ≥ 149 µM
MIC [6]: ≥ 149 µM
MIC [7]: ≥ 149 µM
MIC [8]: ≥ 149 µM
MIC [9]: ≥ 74.7 µM
MIC [10]: ≥ 149 µM
MIC [11]: ≥ 149 µM
MIC [12]: ≥ 149 µM
MIC (Pseudomonas aeruginosa 9): ≥ 149 µM
MIC [13]: ≥ 149 µM
MIC [14]: ≥ 149 µM
MIC [15]: ≥ 149 µM
MIC [16]: ≥ 149 µM
MIC [17]: 149 µM (≈ 182 µg/mL)
MIC [18]: > 149 µM
MIC [19]: ≥ 149 µM
Compound: CC[C@H](C)[C@H](NC(=O)[C@H](CC(N)=O)NC(=O)[C@H](CCCCN)NC(=O)[C@H](Cc1ccccc1)NC(=O)[C@H](CCCN=C(N)N)NC(=O)[C@H](Cc1c[nH]c2ccccc12)NC(=O)[C@H](C)N)C(=O)N[C@@H](CCCN=C(N)N)C(=O)N[C@@H](CCCCN)C(=O)O [AWRFKNIRK]

MIC [20]: 12.5 µM (≈ 31.6 µg/mL)
Compound: CC[C@H](C)[C@H](NC(=O)[C@H](CC(C)C)NC(=O)[C@H](CCCCN)NC(=O)[C@@H]1CCCN1C(=O)[C@@H](NC(=O)[C@H](CC(C)C)NC(=O)[C@H](CC(N)=O)NC(=O)[C@H](C)NC(=O)[C@H](C)NC(=O)[C@H](CC(C)C)NC(=O)CNC(=O)[C@H](C)NC(=O)[C@H](CC(C)C)NC(=O)[C@@H](NC(=O)[C@@H]1CCCN1C(=O)[C@H](CC(C)C)NC(=O)[C@@H](N)Cc1ccccc1)[C@@H](C)CC)C(C)C)C(=O)N[C@H]1CSSC[C@@H](C(=O)O)NC(=O)[C@H](CCCCN)NC(=O)[C@H](CCCCN)NC(=O)[C@H]([C@@H](C)O)NC(=O)[C@H]([C@@H](C)CC)NC(=O)[C@H](CO)NC1=O [FLPILAGLAANLVPKLICSITKKC]

MIC [21]: 5 µM (≈ 6.63 µg/mL)
MIC [22]: 20 µM (≈ 26.5 µg/mL)
MIC [23]: 30 µM (≈ 39.8 µg/mL)
MIC [24]: 10 µM (≈ 13.3 µg/mL)
MIC [25]: 10 µM (≈ 13.3 µg/mL)
Compound: CC[C@H](C)[C@H](NC(=O)CN)C(=O)N[C@@H](Cc1cnc[nH]1)C(=O)N[C@@H](CC(=O)O)C(=O)N[C@H](C(=O)N[C@@H](CC(C)C)C(=O)N[C@@H](CCCCN)C(=O)N[C@@H](Cc1ccc(O)cc1)C(=O)NCC(=O)N[C@@H](CCCCN)C(=O)N1CCC[C@H]1C(=O)N[C@@H](CO)C(N)=O)[C@@H](C)CC [GIHDILKYGKPS]

MIC [21]: 2.2 µM (≈ 3.01 µg/mL)
MIC [22]: 3 µM (≈ 4.1 µg/mL)
MIC [23]: 10 µM (≈ 13.7 µg/mL)
MIC [24]: 10 µM (≈ 13.7 µg/mL)
MIC [25]: 3 µM (≈ 4.1 µg/mL)
Compound: CC[C@H](C)[C@H](NC(=O)CN)C(=O)N[C@@H](Cc1cnc[nH]1)C(=O)N[C@@H](CCCN=C(N)N)C(=O)N[C@H](C(=O)N[C@@H](CC(C)C)C(=O)N[C@@H](CCCCN)C(=O)N[C@@H](Cc1ccc(O)cc1)C(=O)NCC(=O)N[C@@H](CCCCN)C(=O)N1CCC[C@H]1C(=O)N[C@@H](CO)C(N)=O)[C@@H](C)CC [GIHRILKYGKPS]

MIC [1]: 6.05 µM (≈ 8.5 µg/mL)
MIC [2]: 24.2 µM (≈ 34 µg/mL)
MIC [3]: ≥ 49.1 µM
MIC [4]: 3.06 µM (≈ 4.3 µg/mL)
MIC [5]: 1.57 µM (≈ 2.2 µg/mL)
MIC [6]: 12.1 µM (≈ 17 µg/mL)
MIC [7]: 24.2 µM (≈ 34 µg/mL)
MIC [8]: 0.782 µM (≈ 1.1 µg/mL)
MIC [9]: 1.57 µM (≈ 2.2 µg/mL)
MIC [10]: 6.05 µM (≈ 8.5 µg/mL)
MIC [11]: 6.05 µM (≈ 8.5 µg/mL)
MIC [12]: ≥ 49.1 µM
MIC (Pseudomonas aeruginosa 9): 12.1 µM (≈ 17 µg/mL)
MIC [13]: ≥ 98.2 µM
MIC [14]: 12.1 µM (≈ 17 µg/mL)
MIC [15]: 12.1 µM (≈ 17 µg/mL)
MIC [16]: 3.06 µM (≈ 4.3 µg/mL)
MIC [17]: 1.57 µM (≈ 2.2 µg/mL)
MIC [18]: 12.1 µM (≈ 17 µg/mL)
MIC [19]: ≥ 49.1 µM
Compound: CC[C@H](C)[C@H](NC(=O)[C@H](CCCCN)NC(=O)[C@H](Cc1c[nH]c2ccccc12)NC(=O)[C@@H](N)CCCCN)C(=O)N[C@@H](Cc1ccccc1)C(=O)N[C@@H](CCCN=C(N)N)C(=O)N[C@@H](CCCN=C(N)N)C(=O)N[C@@H](Cc1c[nH]c2ccccc12)C(=O)N[C@@H](Cc1c[nH]c2ccccc12)C(=O)O [KWKIFRRWW]

MIC [26]: 16 µM (≈ 56.3 µg/mL)
MIC [27]: 0.25 µM (≈ 0.879 µg/mL)
MIC [28]: 5.66 µM (≈ 19.9 µg/mL)
MIC (Escherichia coli ML-35p): 2.83 µM (≈ 9.95 µg/mL)
MIC [29]: 8 µM (≈ 28.1 µg/mL)
MIC [30]: 8 µM (≈ 28.1 µg/mL)
MIC [31]: 16 µM (≈ 56.3 µg/mL)
MIC [32]: 4 µM (≈ 14.1 µg/mL)
Compound: CC[C@H](C)[C@H](NC(=O)[C@H](CCCN=C(N)N)NC(=O)[C@@H](NC(=O)[C@H](Cc1ccccc1)NC(=O)[C@@H]1CCCN1C(=O)[C@@H]1CCCN1C(=O)[C@@H]1CCCN1C(=O)[C@H](Cc1cnc[nH]1)NC(=O)[C@@H](NC(=O)[C@H](CCCN=C(N)N)NC(=O)[C@H](CCCN=C(N)N)NC(=O)[C@H](Cc1ccccc1)NC(=O)[C@@H]1CCCN1C(=O)[C@H](CC(C)C)NC(=O)[C@H](CCCN=C(N)N)NC(=O)[C@H](Cc1ccccc1)NC(=O)[C@@H](N)CCCN=C(N)N)[C@@H](C)CC)C(C)C)C(=O)N[C@@H](Cc1cnc[nH]1)C(=O)N1CCC[C@H]1C(=O)N1CCC[C@H]1C(=O)N1CCC[C@H]1C(=O)N[C@@H](Cc1ccccc1)C(=O)N[C@@H](Cc1ccc(O)cc1)C(=O)N[C@@H](CCCN=C(N)N)C(=O)N[C@@H](CCCN=C(N)N)C(=O)N[C@@H](Cc1ccccc1)C(=O)N[C@@H](CC(C)C)C(=O)O [RFRLPFRRIHPPPFVRIHPPPFYRRFL]

MIC [26]: ≥ 64 µM
MIC [27]: 4 µM (≈ 9.85 µg/mL)
MIC [28]: 4 µM (≈ 9.85 µg/mL)
MIC (Escherichia coli ML-35p): 4 µM (≈ 9.85 µg/mL)
MIC [29]: 8 µM (≈ 19.7 µg/mL)
MIC [30]: ≥ 32 µM
MIC [31]: ≥ 64 µM
MIC [32]: 16 µM (≈ 39.4 µg/mL)
Compound: CC[C@H](C)[C@H](NC(=O)[C@H](CCCN=C(N)N)NC(=O)[C@@H](NC(=O)[C@@H]1CCCN1C(=O)[C@@H]1CCCN1C(=O)[C@H](CCCN=C(N)N)NC(=O)[C@H](CCCN=C(N)N)NC(=O)[C@H](Cc1ccccc1)NC(=O)[C@@H]1CCCN1C(=O)[C@H](CC(C)C)NC(=O)[C@H](CCCN=C(N)N)NC(=O)[C@H](Cc1ccccc1)NC(=O)[C@@H](N)CCCN=C(N)N)[C@@H](C)CC)C(=O)N[C@@H](Cc1cnc[nH]1)C(=O)N1CCC[C@H]1C(=O)N1CCC[C@H]1C(=O)N1CCC[C@H]1C(=O)N[C@@H](Cc1ccccc1)C(=O)N[C@@H](Cc1ccc(O)cc1)C(N)=O [RFRLPFRRPPIRIHPPPFY]

MIC [26]: ≥ 90.5 µM
MIC [27]: 8 µM (≈ 15.5 µg/mL)
MIC [28]: ≥ 32 µM
MIC (Escherichia coli ML-35p): ≥ 64 µM
MIC [29]: ≥ 64 µM
MIC [30]: ≥ 32 µM
MIC [31]: ≥ 128 µM
MIC [32]: ≥ 32 µM
Compound: CC[C@H](C)[C@H](NC(=O)[C@@H](N)CCCN=C(N)N)C(=O)N[C@@H](Cc1cnc[nH]1)C(=O)N1CCC[C@H]1C(=O)N1CCC[C@H]1C(=O)N1CCC[C@H]1C(=O)N[C@@H](Cc1ccccc1)C(=O)N[C@@H](Cc1ccc(O)cc1)C(=O)N1CCC[C@H]1C(=O)N1CCC[C@H]1C(=O)N[C@@H](Cc1ccccc1)C(=O)N[C@@H](CCCN=C(N)N)C(=O)N[C@@H](CCCN=C(N)N)C(=O)N[C@@H](Cc1ccccc1)C(=O)N[C@@H](CC(C)C)C(N)=O [RIHPPPFYPPFRRFL]
